Results as given in the NIST ThermoML archive (doi:10.1016/j.fluid.2004.11.019).

Experiment: xn = mol fraction of the nth substance listed
Details: 323.15 K, Liquid

CCO [ethanol] + O
mass density [kg/m3]
Details	100 kPa	10000 kPa	20000 kPa
x1 = 0.003	–	990.8	994.9
x1 = 0.0042	–	989.6	993.9
x1 = 0.0082	–	988.2	992.4
x1 = 0.0119	–	986.9	991.1
x1 = 0.0158	–	984.7	988.9
x1 = 0.0184	–	983.3	987.5
x1 = 0.0219	–	982.2	986.3
x1 = 0.0255	–	980.6	984.7
x1 = 0.0279	–	979	983.1
x1 = 0.0315	–	978.1	982.2
x1 = 0.0366	–	975.6	979.6
x1 = 0.0392	–	974.3	978.4
x1 = 0.0439	–	972.8	976.8
x1 = 0.0483	–	970.7	974.8
x1 = 0.0516	–	970	974
x1 = 0.0559	–	968.6	972.7
x1 = 0.06	–	967.1	971.2
x1 = 0.0652	–	965	969.1
x1 = 0.0679	–	964.3	968.3
x1 = 0.0722	–	962.5	966.6
x1 = 0.0801	–	959.3	963.4
x1 = 0.084	–	958.9	963
x1 = 0.0879	–	957.1	961.2
x1 = 0.0926	–	955.5	959.6
x1 = 0.0958	–	954.4	958.5
x1 = 0.1006	–	952.8	956.9
x1 = 0.1111	–	949	953.2
x1 = 0.1225	–	945.1	–
x1 = 0.1296	–	942.6	–
x1 = 0.1402	–	939	–
x1 = 0.151	–	935.2	–
x1 = 0.1601	–	932.2	–
x1 = 0.1703	–	928.8	–
x1 = 0.18	920.6	925.5	–
x1 = 0.1903	917.3	922.1	–
x1 = 0.1996	914.1	919	–
x1 = 0.2269	905.2	910.3	–
x1 = 0.2502	898.1	903.4	–
x1 = 0.2745	890.8	896.3	–
x1 = 0.3009	883.5	889.2	–
x1 = 0.35	870.2	876.2	–
x1 = 0.4034	857.3	863.7	–
x1 = 0.4501	846.7	853.3	–
x1 = 0.498	837	843.9	–
x1 = 0.5501	826.9	834.3	–
x1 = 0.5998	818.4	826.3	–
x1 = 0.6489	810.1	817.9	–
x1 = 0.6967	802.8	810.9	–
x1 = 0.7475	795.4	803.8	–
x1 = 0.7996	788.4	796.9	–
x1 = 0.8484	781.9	790.8	–
x1 = 0.8993	775.6	784.7	–
x1 = 0.9503	769.5	779	–
x1 = 1	763.7	773.4	–
